# Experimental data published in patent US7022524B1, “Increasing plant growth with luminol” (The Regents of the University of California, Office of …, priority 1998, dated 2006).
# Experiments:
# R. meliloti 1021 = test: Production of compounds D and Y by bacterial cultures in supplemented medium; format: cell-based, Rhizobium meliloti; conditions: culture medium supplemented at final concentration of 50 micromolar
# alfalfa seedlings = test: Net photosynthesis measured as radioactive 14CO2 incorporation in alfalfa seedlings; format: in vivo, Medicago sativa L.
# Description: Twenty hours after treating alfalfa roots with purified compound D, 25% to 30% increases in net photosynthesis was effected, as measured by radioactive ^14CO2 incorporation tests. Purified compound D was supplied at approximately 100 pM in solution surrounding roots of three day old alfalfa seedlings. Net photosynthesis was measured as radioactive ^14CO2 incorporation by exposing randomized treatments of all plants simultaneously for about 15 minutes to ^14CO2 in a single chamber with thorough mixing of the chamber atmosphere. Data points were means from two to four replicates, each of which contained approximately 400 seedlings.
# The isotopic assay for measuring net photosynthesis with ^14CO2 is described in Sheikholeslam (1980) Botanical Gazette 141:48-52. Briefly, to measure net photosynthesis, intact seedling are placed in a clear plastic box with direct exposure to sunlight or artificial lights. Isotopically labeled ^14CO2 is generated in the plant chamber by injecting an acid solution through a rubber stopper in the wall of the box and into a beaker containing ^14C-bicarbonate. The ^14CO2 released by that chemical reaction is distributed throughout the box with a fan. After 15 minutes of photosynthesis in the presence of ^14CO2, plants are frozen in liquid nitrogen and separated into roots, stems and leaves. The amount of ^14CO2 is measured in the various plant parts with a scintillation counter after chemical digestion of the plant matter.
# alfalfa = test: Plant growth (dry weight of shoots and roots) of alfalfa after root or seed treatment; format: in vivo, Medicago sativa L.
# Description: In another experiment, treating alfalfa seedling roots with purified compound D at a presumed concentration of about 100 pM every 48 hours for 10 days increased the final shoot dry mass (as determined by weighing) 10% relative to untreated control plants.
# Moapa 69′ alfalfa seeds for all experiments were soaked 30 min in 70% ethanol, rinsed with sterile water, treated 5 min in concentrated H2SO4, rinsed with sterile water, soaked 30 min in commercial bleach and then washed with sterile water. For respiration tests approximately 400 seeds (1 gram) were germinated on a 10×10-cm screen above a hydroponic nutrient solution, see Volpin (1998) Plant Physiol. 116:777-783. In some hydroponic experiments the nutrient solution was supplemented to contain ampicillin (125 mg/L) and rifampicin (10 mg/L). Plant growth experiments were done in sterile pots (10×10×10 cm) containing vermiculite. The pots were watered with the hydroponic nutrient solution (Volpin (1998) supra) supplemented to contain 1 mM NH4NO3 and various lumichrome treatments every second day. In all experiments, plants were grown under controlled conditions using a 12/12-hour day/night photoperiod and a 25/20° C. temperature regime with a photon flux density (400-700 nm) of 250 μmol/m^2-s.
# Lumichrome effects on plant growth were tested by treating roots or seeds. Surface-sterilized seeds were soaked 2 hours in either 0 or 5 nM lumichrome. Then 50 seeds were planted in vermiculite in each pot. Plants germinating from untreated seeds received nutrient solution containing 0, 5 or 50 nM lumichrome. Plants developing from seeds soaked in 5 nM lumichrome were watered with lumichrome-free nutrient solution. Pots were covered initially with a clear, plastic wrap, which was removed after 6 days. Plants were harvested 12 days after germination, and roots and shoots were separated, dried, and weighed.
# [1] = system: alfalfa (Medicago sativa L.) roots; test: Root respiration (CO2 evolution / O2 uptake by gas chromatograph) of excised alfalfa roots after treating intact seedlings; format: in vivo
# Description: Rhizobium meliloti 1021 (Rm1021) (Meade (1982) J. Bacteriol. 149:114-122) were grown to the early stationary phase in a defined minimal medium (as described in Vincent (1970) In “A Manual for the Practical Study of Root-Nodule Bacteria, Blackwell Scientific Publications, Oxford, UK). Bacteria were collected by centrifugation and washed three times with sterile water before roots were inoculated. UV irradiance for killing cells in some experiments was supplied as a 25 minute treatment with a transilluminator(model T1202, Sigma). The absence of living cells in UV-killed cultures and sterile, non-inoculated control treatments was verified by plating on tryptone yeast medium.
# If respiration is to be measured, it is important that the plants be grown under sterile conditions for the respiration measurements (see, e.g., Guri, et al., U.S. Pat. No. 5,503,652, describing compositions and methods to prevent microbial contamination of plant tissue culture media). Seeds of alfalfa (Medicago sativa L. cv Moapa 69) were surface sterilized for 15 minutes in 70% ethanol, rinsed with water, and allowed to imbibe for four hours with aeration before germinating in a hydroponic system (as in Maxwell (1989) Plant Physiol. 91:842-847) containing nitrogen free nutrient solution (see DeJong (1981) Plant Physiol. 68:309-313). Each 400 mL plastic box contained one gram of seeds and produced about 400 seedlings after being maintained in a sterile manner for about three days with aeration at 25° C. under indirect sunlight supplemented with fluorescent lights. Plants used in these experiments consisted of cotyledons and roots with an occasional primary leaf.
# Experiments used 5×10^7 colony-forming units (CFU) of bacteria per mL of plant nutrient solution unless otherwise noted. Bacteria were harvested from their growth medium, washed twice in sterile water, suspended in 1 mL of water and added to the plant nutrient solution of alfalfa seedlings 3 days after germination, when roots were approximately 4-cm long. Sterile water (1 mL) was added to the sterile non-inoculated controls. Plants were harvested to measure root respiration at various times, depending of the experiment. At harvest, roots were excised, blotted briefly on a paper towel, weighed, and enclosed in a 10-mL gas-tight test tube. Each replicate contained 1 gram fresh wt of roots from about 200 plants; every experiment had three or four replicates; and all experiments were repeated at least twice.
# All assays were conducted for 30 minutes immediately after excision. Changes in CO2, and in some experiments O2, were measured at 45° C. with a thermistor detector on a Sigma 4 gas chromatograph equipped with a column (3.05 m×3.2 mm) containing Chromosorb 102 for CO2 and Molecular Sieve 5A for O2. Helium was used as the carrier gas at flow rates of 15 cm^3/min for O2 and 35 cm^3/min for CO2. The change in gas composition during the first 30 min after the roots were enclosed in the assay tubes (described above) was used to calculate respiration rates. Data were analyzed with standard statistical methods to determine SE or LSD0.05 values for comparisons of treatment effects by Student's t test or analysis of variance (see, e.g., Steel et al., (1960) Principles and Procedures of Statistics. McGraw-Hill, N.Y.).
# Moapa 69′ alfalfa seeds for all experiments were soaked 30 min in 70% ethanol, rinsed with sterile water, treated 5 min in concentrated H2SO4, rinsed with sterile water, soaked 30 min in commercial bleach and then washed with sterile water. For respiration tests approximately 400 seeds (1 gram) were germinated on a 10×10-cm screen above a hydroponic nutrient solution, see Volpin (1998) Plant Physiol. 116:777-783. In some hydroponic experiments the nutrient solution was supplemented to contain ampicillin (125 mg/L) and rifampicin (10 mg/L). Plant growth experiments were done in sterile pots (10×10×10 cm) containing vermiculite. […]
# [2] = Solubility and hydrophobicity; format: physicochemical; conditions: for solubility during purification: all solvents; for solubility: purified compounds, water, methanol; for hydrophobicity: removed from aqueous solution in C18 resin
# [3] = Stability to light and heat; format: physicochemical; conditions: e.g., 40° C.
# [4] = about 100 pM to seedling roots every 48 hours for 10 days
compound,measurement,setting,value
CC(=O)c1c(O)cc(O)cc1O [monoacetylphloroglucinol],effect on the production of compound Y,R. meliloti 1021,no consistent effect
"Oc1cc(O)cc(O)c1 [phloroglucinol, reference compound]",effect on the production of compound Y,R. meliloti 1021,no consistent effect
"CC(=O)c1c(O)cc(O)c(C(C)=O)c1O [diacetylphloroglucinol, 2,4-diacetyl-1,3,5-benzenetriol]",increase in net photosynthesis in plants,alfalfa seedlings; applied to roots in nanomolar concentrations,≤ 50%
same,effect on the production of compound Y,R. meliloti 1021,no consistent effect
"Cc1cc2nc3[nH]c(=O)[nH]c(=O)c3nc2cc1C [lumichrome, 7,8,-dimethylalloxazine]",increase in net photosynthesis over untreated control,"alfalfa seedlings; approximately 100 pM around roots of three day old seedlings, 20 hours after treating roots",25% to 30%
same,time to peak of 14CO2 incorporation,alfalfa seedlings; no more than 100 pM,5 to 10 h
same,increase in net photosynthesis above untreated controls,"alfalfa seedlings; no more than 100 pM, 8 hour time point after treating roots",45% to 75%
same,14CO2 incorporation,"alfalfa seedlings; no more than 100 pM, after approximately 20 hours",about 2.0 ^14CO2 cpm×10^5 per gram cotyledon
same,"14CO2 incorporation, peak","alfalfa seedlings; no more than 100 pM, peak after about 5 to 10 hours, negative control about 1.5",2.5 to 2.75 ^14CO2 cpm×10^5 per gram cotyledon
same,increase in plant growth,"alfalfa; 5 nM applied to young alfalfa roots, after 12 days, P≦0.05",8%
same,change in root dry weight,alfalfa; [4],no increase in root dry weight
same,increase in final shoot dry mass relative to untreated control plants,alfalfa; [4],10%
same,increase in plant growth,"alfalfa; alfalfa seeds soaked in 5 nM before germination, 12 days, P≦0.01",18%
same,root mass relative to control,"alfalfa; lumichrome-treated plants, 12 days","numerically, but not significantly, larger"
same,increase in shoot dry weight relative to control shoots,"alfalfa; root drench 5 nM, 12 days, P≦0.05",7%
same,increase in shoot dry weight relative to control shoots,"alfalfa; root drench 50 nM, 12 days, P≦0.01",12%
same,increase in dry matter on a whole-plant basis,"alfalfa; roots exposed or seeds immersed before germination, P≦0.05",8% to 18%
same,increase in shoot dry weight relative to control shoots,"alfalfa; seed soaking 5 nM, 12 days, P≦0.01",18%
same,increase in root respiration,"[1]; 3 to 50 nM treatments of alfalfa roots, several experiments, P≦0.05",11% to 30%
same,increase in root respiration,"[1]; alfalfa roots treated with 3 nM, within 48 hours, P≦0.05",21%
same,time for the (slower) increase in root respiration,[1]; in vivo,greater than 4 hours
same,increase in root respiration,"[1]; intact root systems exposed 39 hours, 3 nM lumichrome or S. meliloti cells 10^7 cfu/ml, P≦0.05",21%
same,solubility during purification,[2],Solubility problems
same,solubility,[2],soluble in both water and methanol
same,hydrophobicity,[2],moderately hydrophobic
same,stability to light and heat,[3],degraded by light and heat
Cc1cc2nc3c(=O)[nH]c(=O)nc-3n(C[C@H](O)[C@H](O)[C@H](O)CO)c2cc1C [riboflavin],enhancement of net photosynthesis,"alfalfa seedlings; very low (e.g., picomolar) concentrations",≤ 7%
same,increase in root respiration compared with lumichrome,"[1]; 200 nM riboflavin, one test",approximately the same increase in root respiration as 30 nM lumichrome
same,increase in root respiration,"[1]; very low (e.g., picomolar) concentrations, various experiments",11% to 31%
same,solubility during purification,[2],only marginally better
same,solubility,[2],soluble in both water and methanol
same,hydrophobicity,[2],moderately hydrophobic
same,stability to light and heat,[3],degraded by light and heat
